The term IC50 denotes the concentration that inhibits the measured activity by half.

Where only a bound is given, the exact number is not on record here.

We go through 38 compounds from patent US9790169B2, “IDO inhibitors” (BRISTOL-MYERS SQUIBB COMPANY, priority 2015, dated 2017).

The target in the assay is human IDO1 (Homo sapiens, UniProt P14902). Put plainly: Assessment of human IDO-1 inhibitory activity in HEK cells (human IDO1/HEK293 cells, kynurenine read-out with Ehrlich reagent, absorbance 490 nm). The format is cell-based. On the set-up: expressed in transfected cells. Particulars: HEK Human IDO-1 cellular assay. Summed up: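 Kynurenine output from stably IDO1-transfected HEK293 cells (10,000/well, phenol red-free RPMI, 10% FBS) after 20 h compound exposure at 37 °C. The reaction was stopped with 0.2% TCA and heated 30 min at 50 °C, then the supernatant was mixed with Ehrlich reagent and read at 490 nm. IC50 was set against DMSO and a 500 nM reference standard as 0 and 100% inhibition.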
human IDO1, sequence (P14902 whole entry): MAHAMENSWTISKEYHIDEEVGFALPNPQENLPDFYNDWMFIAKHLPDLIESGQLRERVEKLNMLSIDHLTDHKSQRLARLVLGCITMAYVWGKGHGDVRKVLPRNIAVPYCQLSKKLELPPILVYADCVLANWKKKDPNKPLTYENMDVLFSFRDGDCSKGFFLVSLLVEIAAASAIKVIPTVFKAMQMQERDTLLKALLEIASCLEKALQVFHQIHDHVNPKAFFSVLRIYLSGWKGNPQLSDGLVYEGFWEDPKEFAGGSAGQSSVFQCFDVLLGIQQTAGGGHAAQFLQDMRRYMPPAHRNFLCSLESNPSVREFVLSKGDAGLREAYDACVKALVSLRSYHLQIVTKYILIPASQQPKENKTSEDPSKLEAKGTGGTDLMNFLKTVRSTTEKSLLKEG

With `CCC(CC(=O)O)c1ccc(N(CC)C2CCCOC2)c(NC(=O)Nc2ccc(C)cc2)c1` (single isomer, unassigned) [Example 73 D4, 3-(4-(Ethyl(tetrahydro-2H-pyran-3-yl)amino)-3-(3-(p-tolyl)ureido)phenyl)pentanoic acid], the IC50 was < 0.005 µM.
Consider `CC[C@@H](CC(=O)O)c1ccc(N2CCOC[C@@H]2C(C)C)c(NC(=O)Nc2ccc(C)cc2)c1` (single isomer, unassigned) [Example 74], for which the IC50 was > 0.05 µM.
As for `CC[C@@H](CC(=O)O)c1ccc(N2CCOC[C@@H]2C(C)C)c(NC(=O)Nc2ccc(Cl)cc2F)c1` (single isomer, unassigned) [Example 75], the figure is < 0.05 µM.
With `CC[C@@H](CC(=O)O)c1ccc(N2CCOC[C@@H]2C(C)C)c(NC(=O)Nc2ccc(OC)cc2F)c1` (single isomer, unassigned) [Example 76], the IC50 is > 0.05 µM.
As for `CC[C@@H](CC(=O)O)c1ccc(N2CCOC[C@@H]2C(C)C)c(NC(=O)Nc2cc(C)on2)c1` (single isomer, unassigned) [Example 77], the figure is > 0.05 µM; as for `CC[C@@H](CC(=O)O)c1ccc(N2CCOC[C@@H]2C(C)C)c(Nc2ccc(Cl)cc2)c1` (single isomer, unassigned) [Example 78], < 0.05 µM.
As for `CCOc1ncc(Nc2cc([C@@H](CC)CC(=O)O)ccc2N2CCOC[C@@H]2C(C)C)cn1` (single isomer, unassigned) [Example 79], the figure is > 0.05 µM; as for `CC[C@@H](CC(=O)O)c1ccc(N2CCOC[C@@H]2C(C)C)c(Nc2ccc3nc(C)sc3c2)c1` (single isomer, unassigned) [Example 80], > 0.05 µM.
As for `CC[C@@H](CC(=O)O)c1ccc(N2CCOC[C@@H]2C(C)C)c(Nc2ccc3c(c2)OC(F)(F)O3)c1` (single isomer, unassigned) [Example 81], the figure is < 0.05 µM.
With `CCOc1ccc(Nc2cc([C@@H](CC)CC(=O)O)ccc2N2CCOC[C@@H]2C(C)C)cc1` (single isomer, unassigned) [Example 82], the IC50 is < 0.05 µM.
The result for `CC[C@@H](CC(=O)O)c1ccc(N2CCOC[C@@H]2C(C)C)c(Nc2ccc(C#N)cc2)c1` (single isomer, unassigned) [Example 83] reads < 0.05 µM.
As for `CC[C@@H](CC(=O)O)c1ccc(N2CCOC[C@@H]2C(C)C)c(Nc2ccc(F)cc2)c1` (single isomer, unassigned) [Example 84], the figure is < 0.05 µM; as for `CC[C@H](CC(=O)O)c1ccc(N2CCOC[C@@H]2C(C)C)c(NC(=O)Nc2ccc(C)cc2)c1` (single isomer, unassigned) [Example 85], > 0.05 µM; as for `CC[C@H](CC(=O)O)c1ccc(N2CCOC[C@@H]2C(C)C)c(NC(=O)Nc2ccc(Cl)cc2F)c1` (single isomer, unassigned) [Example 86], < 0.05 µM.
Turning to `CC[C@H](CC(=O)O)c1ccc(N2CCOC[C@@H]2C(C)C)c(NC(=O)Nc2ccc(OC)cc2F)c1` (single isomer, unassigned) [Example 87], the IC50 is > 0.05 µM.
The result for `CC[C@H](CC(=O)O)c1ccc(N2CCOC[C@@H]2C(C)C)c(NC(=O)Nc2cc(C)on2)c1` (single isomer, unassigned) [Example 88] reads > 0.05 µM.
The result for `CC[C@H](CC(=O)O)c1ccc(N2CCOC[C@@H]2C(C)C)c(Nc2ccc(Cl)cc2)c1` (single isomer, unassigned) [Example 89] reads < 0.005 µM.
The result for `CCc1ccc(Nc2cc([C@H](CC)CC(=O)O)ccc2N2CCOC[C@@H]2C(C)C)cc1` (single isomer, unassigned) [Example 91] reads < 0.05 µM; that for `CC[C@H](CC(=O)O)c1ccc(N2CCOC[C@@H]2C(C)C)c(Nc2ccc(C#N)cc2)c1` (single isomer, unassigned) [Example 92], < 0.005 µM; that for `CC[C@H](CC(=O)O)c1ccc(N2CCOC[C@@H]2C(C)C)c(Nc2ccc3c(c2)OC(F)(F)O3)c1` (single isomer, unassigned) [Example 93], < 0.05 µM.
For `CCOc1ncc(Nc2cc([C@H](CC)CC(=O)O)ccc2N2CCOC[C@@H]2C(C)C)cn1` (single isomer, unassigned) [Example 94], the IC50 was < 0.05 µM.
With `CCC(CC(=O)O)c1cc(F)c(N(CC(C)C)CC(C)C)c(Nc2ccc3nc(C)sc3c2)c1` (single isomer, unassigned) [Example 95, 3-(4-(Diisobutylamino)-3-fluoro-5-((2-methylbenzo[d]thiazol-6-yl)amino)phenyl)pentanoic acid], the IC50 was > 0.05 µM.
The result for `CCc1ccc(Nc2cc(C(CC)CC(=O)O)cc(F)c2N(CC(C)C)CC(C)C)cc1` (single isomer, unassigned) [Example 96, 3-(4-(diisobutylamino)-3-((4-ethylphenyl)amino)-5-fluorophenyl)pentanoic acid] reads < 0.05 µM; that for `CCOc1ccc(Nc2cc(C(CC)CC(=O)O)cc(F)c2N(CC(C)C)CC(C)C)cc1` (single isomer, unassigned) [Example 97, 3-(4-(diisobutylamino)-3-((4-ethoxyphenyl)amino)-5-fluorophenyl)pentanoic acid], < 0.05 µM.
As for `CCC(CC(=O)O)c1cc(F)c(N(CC(C)C)CC(C)C)c(Nc2ccc(OCC(F)(F)F)cc2)c1` (single isomer, unassigned) [Example 98, 3-(4-(diisobutylamino)-3-fluoro-5-((4-(2,2,2-trifluoroethoxy)phenyl)amino)phenyl)pentanoic acid], the figure is > 0.05 µM; as for `CCC(CC(=O)O)c1cc(F)c(N(CC(C)C)CC(C)C)c(Nc2ccc(Cl)cc2)c1` (single isomer, unassigned) [Example 99, 3-(3-((4-chlorophenyl)amino)-4-(diisobutylamino)-5-fluorophenyl)pentanoic acid], < 0.005 µM.
As for `CCC(CC(=O)O)c1cc(F)c(N(CC(C)C)CC(C)C)c(Nc2ccc(F)cc2)c1` (single isomer, unassigned) [Example 100, 3-(4-(diisobutylamino)-3-fluoro-5-((4-fluorophenyl)amino)phenyl)pentanoic acid], the IC50 was < 0.005 µM.
As for `CCC(CC(=O)O)c1cc(F)c(N(CC(C)C)CC(C)C)c(Nc2ccc3c(c2)OC(F)(F)O3)c1` (single isomer, unassigned) [Example 101, 3-(3-((2,2-difluorobenzo [d][1,3]dioxol-5-yl)amino)-4-(diisobutylamino)-5-fluorophenyl)pentanoic acid], the figure is < 0.005 µM.
The result for `CCC(CC(=O)O)c1cc(F)c(N(CC(C)C)CC(C)C)c(Nc2ccc(Cl)c(OCC(F)(F)F)c2)c1` (single isomer, unassigned) [Example 102, 3-(3-((4-chloro-3-(2,2,2-trifluoroethoxy)phenyl)amino)-4-(diisobutylamino)-5-fluorophenyl)pentanoic acid] reads < 0.005 µM.
The result for `CCOc1ncc(Nc2cc(C(CC)CC(=O)O)cc(F)c2N(CC(C)C)CC(C)C)cn1` (single isomer, unassigned) [Example 103, 3-(4-(diisobutylamino)-3-((2-ethoxypyrimidin-5-yl)amino)-5-fluorophenyl)pentanoic acid] reads < 0.005 µM; that for `CCC(CC(=O)O)c1cc(F)c(N(CC(C)C)CC(C)C)c(Nc2cnc(OC)nc2)c1` (single isomer, unassigned) [Example 104, 3-(4-(diisobutylamino)-3-fluoro-5-((2-methoxypyrimidin-5-yl)amino)phenyl) pentanoic acid], < 0.005 µM.
For the compound `CCC(CC(=O)O)c1cc(F)c(N(CC(C)C)CC(C)C)c(Nc2ccnc(N3CCOCC3)n2)c1` (single isomer, unassigned) [Example 105, 3-(4-(diisobutylamino)-3-fluoro-5-((2-morpholinopyrimidin-4-yl)amino)phenyl) pentanoic acid], the IC50 is > 0.05 µM.
The result for `CCC(CC(=O)O)c1cc(F)c(N(CC(C)C)CC(C)C)c(Nc2ccc(OCC3CC3)cc2)c1` (single isomer, unassigned) [Example 106, 3-(3-((4-(cyclopropylmethoxy)phenyl)amino)-4-(diisobutylamino)-5-fluorophenyl)pentanoic acid] reads < 0.05 µM; that for `CCC(CC(=O)O)c1cc(F)c(N(CC(C)C)CC(C)C)c(Nc2ccc(C#N)cc2)c1` (single isomer, unassigned) [Example 107, 3-(3-((4-cyanophenyl)amino)-4-(diisobutylamino)-5-fluorophenyl)pentanoic acid], < 0.005 µM; that for `CCC(CC(=O)O)c1cc(F)c(N(CC(C)C)CC(C)C)c(Nc2ccc(Cl)c(OCC(F)(F)F)c2)c1` (single isomer, unassigned) [Example 118, 3-(3-((4-chloro-3-(2,2,2-trifluoroethoxy)phenyl)-amino)-4-(diisobutylamino)-5-fluorophenyl)pentanoic acid], < 0.05 µM.
As for `CCC(CC(=O)O)c1cc(F)c(N(CC(C)C)CC(C)C)c(NC(=O)c2ccc(Cl)cc2)c1` (single isomer, unassigned) [Example 127, 3-(3-(4-Chlorobenzamido)-4-(diisobutylamino)-5-fluorophenyl)pentanoic acid], the IC50 is > 0.05 µM.
Turning to `CC(C)CN(CC(C)C)c1c(F)cc(C(CC(=O)O)c2ccccc2)cc1Nc1ccc(Cl)cc1` (single isomer, unassigned) [Example 129, 3-(3-((4-Chlorophenyl)amino)-4-(diisobutylamino)-5-fluorophenyl)-3-phenylpropanoic acid], the IC50 is < 0.05 µM.
For the compound `Cc1nc2ccc(Nc3cc(C(CC(=O)O)c4ccccc4)cc(F)c3N(CC(C)C)CC(C)C)cc2s1` (single isomer, unassigned) [Example 130, 3-(4-(Diisobutylamino)-3-fluoro-5-((2-methylbenzo[d]thiazol-6-yl)amino)phenyl)-3-phenylpropanoic acid], the IC50 was > 0.05 µM.
